# Results published in paper PMC3561128, “Preclinical evaluation of carbon-11 and fluorine-18 sulfonamide derivatives for in vivo radiolabeling of erythrocytes” (EJNMMI Research, 2013).
# Columns and labels:
# [1] = Biodistribution studies in NMRI mice; format: in vivo; conditions: i.v.; for Percentage of ID, blood: blood mass assumed 7% of body mass
# Procedure: The biodistribution studies were performed in wild-type NMRI mice with body weights ranging from 30 to 40 g. Mice were intravenously injected with 0.1 MBq of ^18F]-(3) or ^18F]-(5) and 5.5 MBq of ^11C]-(4) or ^11C]-(6) under anesthesia (2% isoflurane in O2 at a flow rate of 1 L/min). The animals were killed by decapitation at 2 min or 60 min p.i. (n = 4/time point for ^18F]-(3), ^11C]-(4), and ^11C]-(6); n = 6 for ^18F]-(5)). Blood was collected, and all major organs were dissected and collected in tarred tubes and were weighed. The radioactivity in each organ was counted using an automated gamma counter, corrected for background radioactivity and expressed as follows: percentage of the injected dose (% ID) or as standardized uptake value (SUV) (SUV = (Counts in tissue per gram of tissue) / (Injected counts per total body mass (g)). For the calculation of total radioactivity in the blood, blood mass was assumed to be 7% of the body mass.
# [2] = Dynamic micro-PET scan in rats; format: in vivo, Wistar rat
# Procedure: PET images were acquired on a FOCUS 220 tomograph (Siemens/Concorde Microsystems, Knoxville, TN, USA). During all scan sessions, rats were anesthetized (2.5% isoflurane in O2 at a flow rate of 1 L/min) and scanned in prone position. [^18F]-(5) (37 MBq) was administered via the tail vein, and a 1-h dynamic scan was acquired. The images were acquired in list mode and binned in sinograms using a 21-dynamic frame protocol (4 × 15, 4 × 60, 5 × 180, 8 × 300 s). Reconstruction was performed with the Focus 220 software (using Fourier rebinning, followed by two-dimensional (2D) OSEM algorithm), and data were analyzed using PMOD (version 2.65; PMOD, Zurich, Switzerland). The radioactivity concentration in the heart region was expressed as SUVs as a function of time after injection of the radiotracer.
compound,measurement,setting,value
"[11CH3]Oc1ccc(S(N)(=O)=O)cc1 [[^11C]-(6), 4-[^11C]methoxybenzene sulfonamide]","Percentage of ID, brain",[1]; 2 min p.i.,0.7 ± 0.1 % ID
same,"Percentage of ID, carcass",[1]; 2 min p.i.,28.4 ± 2.0 % ID
same,"Percentage of ID, heart",[1]; 2 min p.i.,0.7 ± 0.2 % ID
same,"Percentage of ID, intestines",[1]; 2 min p.i.,5.2 ± 0.9 % ID
same,"Percentage of ID, kidneys",[1]; 2 min p.i.,3.7 ± 0.1 % ID
same,"Percentage of ID, liver",[1]; 2 min p.i.,6.9 ± 0.4 % ID
same,"Percentage of ID, lungs",[1]; 2 min p.i.,6.3 ± 2.7 % ID
same,"Percentage of ID, spleen + pancreas",[1]; 2 min p.i.,1.2 ± 0.1 % ID
same,"Percentage of ID, stomach",[1]; 2 min p.i.,1.5 ± 0.3 % ID
same,"Percentage of ID, urine",[1]; 2 min p.i.,0.3 ± 0.1 % ID
same,"SUV, blood",[1]; 2 min p.i.,11.9 ± 1.1
same,"SUV, brain",[1]; 2 min p.i.,0.7 ± 0.1
same,"SUV, heart",[1]; 2 min p.i.,1.6 ± 0.4
same,"SUV, kidneys",[1]; 2 min p.i.,2.4 ± 0.3
same,"SUV, liver",[1]; 2 min p.i.,1.5 ± 0.1
same,"SUV, lungs",[1]; 2 min p.i.,6.2 ± 2.1
same,"SUV, spleen",[1]; 2 min p.i.,1.9 ± 0.8
same,"Percentage of ID, blood",[1]; 2 min p.i.,83.4 ± 7.7 % ID
same,"Percentage of ID, brain",[1]; 60 min p.i.,1.5 ± 0.1 % ID
same,"Percentage of ID, carcass",[1]; 60 min p.i.,26.1 ± 1.0 % ID
same,"Percentage of ID, heart",[1]; 60 min p.i.,0.4 ± 0.1 % ID
same,"Percentage of ID, intestines",[1]; 60 min p.i.,19.3 ± 1.0 % ID
same,"Percentage of ID, kidneys",[1]; 60 min p.i.,4.1 ± 0.6 % ID
same,"Percentage of ID, liver",[1]; 60 min p.i.,6.1 ± 0.5 % ID
same,"Percentage of ID, lungs",[1]; 60 min p.i.,3.1 ± 1.4 % ID
same,"Percentage of ID, spleen + pancreas",[1]; 60 min p.i.,2.3 ± 0.6 % ID
same,"Percentage of ID, stomach",[1]; 60 min p.i.,2.4 ± 0.2 % ID
same,"Percentage of ID, urine",[1]; 60 min p.i.,4.8 ± 0.3 % ID
same,"SUV, blood",[1]; 60 min p.i.,7.1 ± 0.7
same,"SUV, brain",[1]; 60 min p.i.,1.1 ± 0.1
same,"SUV, heart",[1]; 60 min p.i.,0.9 ± 0.1
same,"SUV, kidneys",[1]; 60 min p.i.,2.4 ± 0.2
same,"SUV, liver",[1]; 60 min p.i.,1.4 ± 0.2
same,"SUV, lungs",[1]; 60 min p.i.,3.5 ± 1.1
same,"SUV, spleen",[1]; 60 min p.i.,2.4 ± 0.4
same,"Percentage of ID, blood",[1]; 60 min p.i.,49.7 ± 4.8 % ID
"[11CH3]Oc1ccc(C(=O)NCCc2ccc(S(N)(=O)=O)cc2)cc1 [[^11C]-(4), 4-[^11C]methoxybenzoyl aminoethylbenzenesulfonamide]","Percentage of ID, brain",[1]; 2 min p.i.,0.2 ± 0.0 % ID
same,"Percentage of ID, carcass",[1]; 2 min p.i.,17.6 ± 1.5 % ID
same,"Percentage of ID, heart",[1]; 2 min p.i.,0.5 ± 0.1 % ID
same,"Percentage of ID, intestines",[1]; 2 min p.i.,3.6 ± 1.3 % ID
same,"Percentage of ID, kidneys",[1]; 2 min p.i.,8.1 ± 1.3 % ID
same,"Percentage of ID, liver",[1]; 2 min p.i.,8.4 ± 0.7 % ID
same,"Percentage of ID, lungs",[1]; 2 min p.i.,4.9 ± 2.5 % ID
same,"Percentage of ID, spleen + pancreas",[1]; 2 min p.i.,0.6 ± 0.1 % ID
same,"Percentage of ID, stomach",[1]; 2 min p.i.,0.7 ± 0.1 % ID
same,"Percentage of ID, urine",[1]; 2 min p.i.,0.4 ± 0.1 % ID
same,"SUV, blood",[1]; 2 min p.i.,12.9 ± 0.8
same,"SUV, brain",[1]; 2 min p.i.,0.2 ± 0.0
same,"SUV, heart",[1]; 2 min p.i.,1.2 ± 0.2
same,"SUV, kidneys",[1]; 2 min p.i.,4.3 ± 0.7
same,"SUV, liver",[1]; 2 min p.i.,1.5 ± 0.2
same,"SUV, lungs",[1]; 2 min p.i.,6.0 ± 1.6
same,"SUV, spleen",[1]; 2 min p.i.,0.9 ± 0.1
same,"Percentage of ID, blood",[1]; 2 min p.i.,90.5 ± 5.9 % ID
same,"Percentage of ID, brain",[1]; 60 min p.i.,0.3 ± 0.0 % ID
same,"Percentage of ID, carcass",[1]; 60 min p.i.,21.2 ± 2.8 % ID
same,"Percentage of ID, heart",[1]; 60 min p.i.,0.5 ± 0.1 % ID
same,"Percentage of ID, intestines",[1]; 60 min p.i.,12.4 ± 0.8 % ID
same,"Percentage of ID, kidneys",[1]; 60 min p.i.,4.1 ± 0.3 % ID
same,"Percentage of ID, liver",[1]; 60 min p.i.,9.2 ± 1.1 % ID
same,"Percentage of ID, lungs",[1]; 60 min p.i.,4.2 ± 1.1 % ID
same,"Percentage of ID, spleen + pancreas",[1]; 60 min p.i.,0.8 ± 0.1 % ID
same,"Percentage of ID, stomach",[1]; 60 min p.i.,2.6 ± 0.3 % ID
same,"Percentage of ID, urine",[1]; 60 min p.i.,4.4 ± 2.7 % ID
same,"SUV, blood",[1]; 60 min p.i.,10.4 ± 1.1
same,"SUV, brain",[1]; 60 min p.i.,0.2 ± 0.0
same,"SUV, heart",[1]; 60 min p.i.,1.0 ± 0.3
same,"SUV, kidneys",[1]; 60 min p.i.,2.5 ± 0.2
same,"SUV, liver",[1]; 60 min p.i.,1.9 ± 0.3
same,"SUV, lungs",[1]; 60 min p.i.,4.7 ± 0.7
same,"SUV, spleen",[1]; 60 min p.i.,1.1 ± 0.2
same,"Percentage of ID, blood",[1]; 60 min p.i.,72.5 ± 7.6 % ID
"NS(=O)(=O)c1ccc(OCC[18F])cc1 [[^18F]-(5), 4-(2-[^18F]fluoroethoxy)benzenesulfonamide]","Percentage of ID, brain",[1]; 2 min p.i.,0.3 ± 0.0 % ID
same,"Percentage of ID, carcass",[1]; 2 min p.i.,18.8 ± 1.6 % ID
same,"Percentage of ID, heart",[1]; 2 min p.i.,0.6 ± 0.1 % ID
same,"Percentage of ID, intestines",[1]; 2 min p.i.,2.9 ± 0.4 % ID
same,"Percentage of ID, kidneys",[1]; 2 min p.i.,4.1 ± 0.8 % ID
same,"Percentage of ID, liver",[1]; 2 min p.i.,6.0 ± 1.1 % ID
same,"Percentage of ID, lungs",[1]; 2 min p.i.,7.3 ± 3.9 % ID
same,"Percentage of ID, spleen + pancreas",[1]; 2 min p.i.,1.1 ± 0.1 % ID
same,"Percentage of ID, stomach",[1]; 2 min p.i.,0.8 ± 0.2 % ID
same,"Percentage of ID, urine",[1]; 2 min p.i.,0.3 ± 0.1 % ID
same,"SUV, blood",[1]; 2 min p.i.,17.3 ± 2.5
same,"SUV, brain",[1]; 2 min p.i.,0.5 ± 0.1
same,"SUV, heart",[1]; 2 min p.i.,1.6 ± 0.4
same,"SUV, kidneys",[1]; 2 min p.i.,3.1 ± 0.6
same,"SUV, liver",[1]; 2 min p.i.,1.4 ± 0.3
same,"SUV, lungs",[1]; 2 min p.i.,9.3 ± 2.9
same,"SUV, spleen",[1]; 2 min p.i.,2.1 ± 0.7
same,"Percentage of ID, blood",[1]; 2 min p.i.,106.3 ± 5.2 % ID
same,"Percentage of ID, brain",[1]; 60 min p.i.,1.0 ± 0.1 % ID
same,"Percentage of ID, carcass",[1]; 60 min p.i.,22.4 ± 1.5 % ID
same,"Percentage of ID, heart",[1]; 60 min p.i.,0.6 ± 0.2 % ID
same,"Percentage of ID, intestines",[1]; 60 min p.i.,9.6 ± 2.8 % ID
same,"Percentage of ID, kidneys",[1]; 60 min p.i.,3.7 ± 1.1 % ID
same,"Percentage of ID, liver",[1]; 60 min p.i.,4.0 ± 0.2 % ID
same,"Percentage of ID, lungs",[1]; 60 min p.i.,1.8 ± 0.6 % ID
same,"Percentage of ID, spleen + pancreas",[1]; 60 min p.i.,0.9 ± 0.4 % ID
same,"Percentage of ID, stomach",[1]; 60 min p.i.,4.2 ± 3.1 % ID
same,"SUV, blood",[1]; 60 min p.i.,11.1 ± 1.2
same,"SUV, brain",[1]; 60 min p.i.,1.4 ± 0.2
same,"SUV, heart",[1]; 60 min p.i.,1.7 ± 0.5
same,"SUV, kidneys",[1]; 60 min p.i.,2.5 ± 0.4
same,"SUV, liver",[1]; 60 min p.i.,1.0 ± 0.1
same,"SUV, lungs",[1]; 60 min p.i.,3.8 ± 0.4
same,"SUV, spleen",[1]; 60 min p.i.,2.2 ± 0.8
same,"Percentage of ID, blood",[1]; 60 min p.i.,71.0 ± 14.5 % ID
same,Average SUV ratio heart-to-kidney,[2]; micro-PET,2.5
same,Average SUV ratio heart-to-liver,[2]; micro-PET,4
same,Average SUV ratio heart-to-spleen,[2]; micro-PET,2.3
same,Bone uptake (in vivo defluorination),[2]; micro-PET,no bone uptake was observed
same,Heart region SUV at 60 min relative to the 2-min value,[2]; micro-PET,75%
same,"SUV, heart","[2]; micro-PET time activity curves, 37 MBq i.v.",2.5
